Data as given in PubChem BioAssay AID256 (DTP/NCI, 2004).
Where “and” joins values, the source holds several entries; their conditions need not be identical. Identical values can stand only once. Inconclusive results and toxic doses are left out.

Test system: CD2F1 mice, L1210 leukemia ip, survival T/C
Assay: NCI In Vivo Anticancer Drug Screen. Data for tumor model L1210 Leukemia (intraperitoneal) in CD2F1 (CDF1) mice
Conditions: endpoint: mean survival time, higher = longer survival
In short: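 Implant tumor; dose compound or vehicle; measure endpoint in both groups; report treated divided by control.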

[1] = dose: 100.0 mg/kg/injection, schedule: Q04DX003 (ip), vehicle: saline with Tween-80
[2] = dose: 50.0 mg/kg/injection, schedule: Q04DX003 (ip), vehicle: saline with Tween-80
[3] = dose: 200.0 mg/kg/injection, schedule: Q04DX003 (ip), vehicle: saline with Tween-80
[4] = dose: 100.0 mg/kg/injection, schedule: Q01DX001 (ip), vehicle: saline
[5] = dose: 12.5 mg/kg/injection, schedule: Q01DX009 (ip), vehicle: saline with Tween-80
[6] = dose: 12.5 mg/kg/injection, schedule: Q04DX003 (ip), vehicle: saline with Tween-80
[7] = dose: 25.0 mg/kg/injection, schedule: Q01DX009 (ip), vehicle: saline with Tween-80
[8] = dose: 25.0 mg/kg/injection, schedule: Q04DX003 (ip), vehicle: saline with Tween-80
[9] = dose: 50.0 mg/kg/injection, schedule: Q01DX009 (ip), vehicle: saline with Tween-80
[10] = dose: 200.0 mg/kg/injection, schedule: Q01DX009 (ip), vehicle: saline with Tween-80
[11] = dose: 100.0 mg/kg/injection, schedule: Q01DX009 (ip), vehicle: saline with Tween-80

In the case of `CN(N=O)C(=O)NC1C(CO)OC(n2ccc(N)nc2=O)C1O` (stereo not drawn), the T/C (dose: 12.5 mg/kg/injection, schedule: Q01DX001 (ip), vehicle: saline with Tween-80) is reported as 101 % of control, the T/C (dose: 25.0 mg/kg/injection, schedule: Q01DX001 (ip), vehicle: saline with Tween-80) is reported as 110 % of control and the T/C (dose: 50.0 mg/kg/injection, schedule: Q01DX001 (ip), vehicle: saline with Tween-80) is reported as 98 % of control. For the same molecule, the T/C (dose: 100.0 mg/kg/injection, schedule: Q01DX001 (ip), vehicle: saline with Tween-80) was 98 % of control, the T/C (dose: 200.0 mg/kg/injection, schedule: Q01DX001 (ip), vehicle: saline with Tween-80) was 103 % of control and the T/C (dose: 400.0 mg/kg/injection, schedule: Q01DX001 (ip), vehicle: saline with Tween-80) was 108 % of control.

With `C=CCNC(=O)c1ccc[n+](CC(=O)Nc2ccccc2)c1` the T/C [1] was 103 % of control.

`CN(C)N=Nc1ccccc1` was tested, and the T/C (dose: 37.5 mg/kg/injection, schedule: Q01DX009 (ip), vehicle: Klucel (hydroxypropylcellulose) (HPC)) was 158 % of control and the T/C (dose: 75.0 mg/kg/injection, schedule: Q01DX009 (ip), vehicle: Klucel (hydroxypropylcellulose) (HPC)) was 106 % of control.

With `COc1ccc(Cl)cc1C/C=N/N(C)C` the T/C (dose: 75.0 mg/kg/injection, schedule: Q01DX001 (ip), vehicle: saline) was 103 % of control and the T/C (dose: 150.0 mg/kg/injection, schedule: Q01DX001 (ip), vehicle: saline) was 105 % of control.

In the case of `COC(=O)C1c2ccccc2-c2ccccc21`, the T/C [2] is reported as 95 % of control, the T/C [1] is reported as 103 % of control and the T/C [3] is reported as 100 % of control.

With `Nc1nc(=S)c2[nH]c(-c3ccccc3)nc2[nH]1` the T/C (dose: 12.5 mg/kg/injection, schedule: Q01DX005 (ip), vehicle: other) was 96 % of control, the T/C (dose: 25.0 mg/kg/injection, schedule: Q01DX005 (ip), vehicle: other) was 90 % of control and the T/C (dose: 50.0 mg/kg/injection, schedule: Q01DX005 (ip), vehicle: other) was 93 % of control. For the same molecule, the T/C (dose: 100.0 mg/kg/injection, schedule: Q01DX005 (ip), vehicle: other) was 93 % of control and the T/C (dose: 200.0 mg/kg/injection, schedule: Q01DX005 (ip), vehicle: other) was 90 % of control.

For `CC1C(OC(=O)CCl)CCC2C1(C)CCC1C2(C)CCC2(C)C3CC(C)(C)CCC3(C)CCC12C` (stereo not drawn), the T/C [4] was 97 % of control, the T/C (dose: 200.0 mg/kg/injection, schedule: Q01DX001 (ip), vehicle: saline) was 97 % of control and the T/C (dose: 400.0 mg/kg/injection, schedule: Q01DX001 (ip), vehicle: saline) was 97 % of control.

`CCCCCOC(=O)Nc1cccc(O)c1` was tested, and the T/C [1] was 95 % of control and the T/C [3] was 94 % of control.

For `N=C(N)SCc1ccccc1`, the T/C (dose: 6.25 mg/kg/injection, schedule: Q04DX003 (ip), vehicle: saline with Tween-80) was 114 % of control, the T/C [5] was 94 % of control and the T/C [6] was 100 % of control. For the same molecule, the T/C (dose: 25.0 mg/kg/injection, schedule: Q01DX001 (ip), vehicle: saline) was 93 % of control, the T/C [7] was 96 % of control and the T/C [8] was 112 % of control. The T/C (dose: 50.0 mg/kg/injection, schedule: Q01DX001 (ip), vehicle: saline) was 100 % of control, the T/C [9] was 93 % of control and 97 % of control and the T/C [2] was 94 % of control and 97 % of control. The T/C [4] was 96 % of control, the T/C [1] was 100 % of control and the T/C [10] was 86 % of control. The T/C [3] was 95 % of control.

With `CSC(=S)N/N=C/c1ccccc1O` the T/C [5] was 95 % of control, the T/C [6] was 100 % of control and the T/C [7] was 87 % of control. The T/C [8] was 97 % of control and the T/C [2] was 95 % of control.

For `S=c1nn[nH]n1-c1ccccc1`, the T/C (dose: 100.0 mg/kg/injection, schedule: Q01DX009 (ip), vehicle: saline) was 103 % of control and the T/C (dose: 200.0 mg/kg/injection, schedule: Q01DX009 (ip), vehicle: saline) was 109 % of control.

With `N#C/C(C(=S)S)=C(/O)c1ccccc1` the T/C [7] was 102 % of control, the T/C [9] was 101 % of control and the T/C [11] was 102 % of control. For the same molecule, the T/C [1] was 94 % of control.

`Nc1ccc2c(Cl)cc(Cl)cc2c1` was tested, and the T/C [9] was 102 % of control, the T/C [11] was 103 % of control and the T/C [1] was 98 % of control. The T/C [10] was 96 % of control and the T/C [3] was 91 % of control.
